{
  "source": "patent US20250386827A1",
  "about": "“PESTICIDES WITH METAL NANOPARTICLE AND CELLULOSIC NANOMATERIAL COMPLEX” (NDSU Research Foundation, priority 2024, published 2025)",
  "key": {"wheat leaf surface": {"system": "wheat leaf surface", "assay": "Contact angle and solid-liquid adhesion energy on wheat leaf surface", "assay_type": "physicochemical", "conditions": "100 mg/mL", "protocol": "(§1) Surface Adhesion Properties. The contact angle (θc) of the complexation solution on the wheat leaf surface and the surface tension at the liquid-vapor interface (γLV) were measured using a KRUSS (Model: DSA1005, Serial: 30009734, Germany) drop-shape analyzer. The wheat leaf was taped on the sample stage to prepare a flat and level surface for the measurement. […] KRUSS software tracked the surface of the droplet with respect to the leaf surface baseline and calculated the contact angle (θC). Surface tension γLv of the droplet (largest droplet formation at syringe nozzle just before dripping from the nozzle) was measured using a KRUSS drop shape analyzer (pendant needle was used, diameter 1.8 mm). The solid-liquid adhesion energy per unit area (δWSLV) of the droplet was calculated using the following Young-Dupré equation (1): [formula]"}, "[1]": {"assay": "Surface tension of droplet (pendant drop, drop-shape analyzer)", "assay_type": "physicochemical", "conditions": "100 mg/mL in water", "protocol": "as §1, with “[formula]” left out"}},
  "data": [
    {"compound": "O.O.O.O.O.O=S(=O)([O-])[O-].[Cu+2]", "note": "[CuSO4, copper (II) sulfate pentahydrate]", "values": [
      {"measurement": "contact angle", "setting": "wheat leaf surface", "result": 125.2, "unit": "°"},
      {"measurement": "surface adhesion energy", "setting": "wheat leaf surface; Young-Dupré equation", "result": 24.17, "unit": "mM/m"},
      {"measurement": "surface tension", "setting": "[1]", "result": 57.46, "unit": "mM/m"}
    ]}
  ]
}
